Experimental data as given in patent US9618453B2, “Aggregation induced emission of fluorescent bioprobes and methods of using the same” (THE HONG KONG UNIVERSITY OF SCIENCE AND TECHNOLOGY, priority 2011, dated 2017).

What was measured:
[1] = target: bovine serum albumin (BSA) (Bos taurus, UniProt P02769); assay: Fluorescence labeling of BSA with TPE-SO3 in phosphate buffer; settings: BSA 5 μM, pH 7.0
Method: Fluorescence labeling was carried out by sequentially adding solutions of TPE-SO3 to 100 μL aliquots of BSA solutions. The mixtures were stirred for half an hour prior to taking their spectra.
The PL peak intensities of the BSA prepared with the lowest concentrations of TPE-SO3 were used as the reference and plots of the normalized fluorescence versus the concentrations of TPE-SO3 were obtained (FIG. 22). […] TPE-SO3 is represented by the following chemical formula: […]

[2] = target: horse myoglobin (0 Cys) (Equus caballus, UniProt P68082); assay: Fluorescent labeling of Cys residues of protein with TPEMBR, SDS-PAGE; settings: 0.5 mM dye
Method: (§1) 2.5 μL Tris-HCl (1 M), 2.5 μL TCEP (20 mM), 5 μL BSA (1 mg/mL, 15 μM), and 30 μL urea (8 M in water) was added to a 1.5 mL Eppendorf tube and mixed well. The mixture was incubated at room temperature for 30 min to pre-reduce the disulfide bonds with TCEP. Then, 10 μL of the TPEMBR DMSO stock solution (2.5 mM 5×) was added to the system and made the final volume 50 μL. The reaction mixture was incubated for 3 hours at 50° C. in an Eppendorf Thermomixer. Then, samples were cooled either to room temperature for instant use or frozen for eventual use.
(§2) Specific labeling of Cys residues by TPEMBR was examined through the labeling of proteins with different Cys contents. BSA (35 Cys), yeast enolase (single Cys) and horse myoglobin (0 Cys) were labeled with 0.5 mM of TPEMBR, respectively. The corresponding fluorescent products were analyzed on gel. […] The results further confirmed the specificity of TPEMBR to Cys residue when the working concentration of 0.5 mM was used.

[3] = Quantum efficiency of TPEMBR before and after reaction with dithiothreitol (DTT); assay type: physicochemical; settings: water/THF solution, water fraction 90 vol %
Method: In addition to the enhancement of fluorescence because of its AIE property, TPEMBR becomes even more emissive through the reaction between its bromomethyl group and thiol group of proteins, presumably due to the elimination of the internal heavy atom effect of bromide. […] TPEMBR and DTT in equal amount were dissolved in THF to give a concentration of 10 μM for each component. The mixture was then incubated at room temperature overnight. Photoluminescence intensity and UV absorption of TPEMBR were measured in THF/water mixtures with a water fraction of 90 vol % before and after reacting with DTT. As shown in FIGS. 12a and 12b, the quantum efficiency of TPEMBR in the water/THF solution with a water fraction of 90 vol % was approximately 3 times higher after reacting with DTT.

[4] = Fluorescence quantum efficiency in the solid state; assay type: physicochemical
Description: (§3) Tetrahydrofuran (THF; Labscan) was distilled under nitrogen from sodium benzophenone ketyl immediately prior to use. Acrylamide was purchased from Bio-Rad. Aminoallyl-dUTP (aa-dUTP), dNTPs, DNase I (RNase-free), DNA Polymerase I, Klenow Fragment exo-, Random Hexamer Primer, Long PCR Enzyme Mix and GeneJET™ PCR Purification Kit, GeneRuler™ 100 bp Plus DNA Ladder (ready-to-use, 100-3000 bp), 6×DNA Loading Dye were purchased from Fermentas (Thermo Scientific). Deep VentR™ exo-DNA Polymerase was purchased from New England Biolabs (NEB). Synthesized oligonucleotides (primers) were purchased from Tech Drogon Limited. GelRed™ Nucleic Acid Gel Stain (10000× in water) was purchased from Biotium. Other chemicals, reagents and solvents were all purchased from Aldrich or Invitrogen. ^1H and ^13C NMR spectra were measured on a Bruker ARX 400 NMR spectrometer using CDCl3 as solvent. High-resolution mass spectra (HRMS) were taken on a Finnigan TSQ 7000 triple quadrupole spectrometer in a MALDI-TOF mode. UV spectra were measured on a Milton Roy Spectronic 3000 Array spectrophotometer. Fluorescence (FL) spectra were recorded on a Perkin-Elmer LS 55 spectrofluorometer. FL quantum yields (ΦF) of amorphous powders of siloles were measured using C-701 Time-Resolved Spectrofluorometer with the integrating sphere as accessory.

[5] = Photoluminescence in THF/water mixtures with different water fractions (aggregation induced emission); assay type: physicochemical; settings: water/THF solution, water fraction 90 vol %
Description: The AIE of TPENCS is illustrated in FIG. 1. […] With water content ranging from 0-70%, the fluorescence intensity remained at a very low level. When the water concentration was in the 80-90 vol % range, a rapid and dramatic increase of the fluorescence intensity with increasing water content was observed (FIG. 1b). The PL intensity of TPENCS in the water/THF solution with a water fraction of 90 vol % was approximately 50-fold higher than that in the mixture with 70% water. The quantum efficiency of TPENCS was 52.2% in the solid state.
Similar to other AIE active molecules, TPEMBR only gave weak emission in good solvents such as THF. […] To quantify the effect of water content on the degree of fluorescent emission enhancement, the photoluminescence intensity of TPEMBR was measured where the fraction of water was increased from 0 to 90 vol %. With the water content in the range of 0-70%, the fluorescent intensity remained at a very low level. With the water fraction reaching the 80-90 vol % range, a rapid and dramatic increase of the fluorescent intensity was observed (FIG. 9b). The photoluminescence intensity of TPEMBR in the water/THF solution with a water fraction of 90 vol % was approximately 50-fold stronger than that in the mixture with 70% water. In the solid state, the quantum efficiency of TPEMBR was determined to be 31.7%.
The AIE of SITC is illustrated in FIGS. 17a and 17b. The wavelength at maximum absorption of SITC was at 363 nm and the emission maximum was at 490 nm. […] To quantify the effect of water content on the elevation of the fluorescent emission, the photoluminescence intensity of SITC was measured with concentration of water increasing from 0 to 90 vol %. With water content ranging from 0-70%, the fluorescent intensity remained at a very low level. When the water concentration was in the 80-95 vol % range, a rapid and dramatic increase of the fluorescent intensity with increasing water content was observed (FIG. 17b). The photoluminescence intensity of SITC in the water/THF solution with a water fraction of 95 vol % was approximately 50-fold higher than that in the mixture with 70% water. The quantum efficiency of SITC was 45.8% in the solid state.
as §3
Structure of dye is confirmed by standard spectroscopic methods (FIGS. 23, 26a, and 27a). In order to confirm TPEITC is AIE-active, we investigated its fluorescence in THF/water mixtures with different water fractions. […] TPEITC molecules with hydrophobic aromatic cores precipitated and became aggregate in the nonsolvent mixture. Aggregation blocks the nonradiative relaxation channels and populates the radiative decay, thus resulting in high luminescence. […]

[6] = target: BSA (35 Cys) (Bos taurus, UniProt P02769); assay: Fluorescent labeling of Cys residues of protein with TPEMBR, SDS-PAGE; set-up: species or system bovine
Method: as §1
In order to ensure that the Cys residues were sufficiently labeled with TPEMBR, a longer reaction time (usually overnight) at or below room temperature was required. Alternatively, the reaction time could be reduced if labeling was carried out at 50° C. To verify the time-dependence of labeling efficiency, bovine serum albumin (BSA) samples were labeled with TPEMBR for different times ranging from 10 min to 4 h and analyzed by SDS-PAGE. The fluorescence intensity of the labeled BSA increased as the reaction time was extended. The maximum intensity under specific labeling conditions was observed after 3 h and remained unchanged even with an additional 1 h of reaction time (FIGS. 11a and 11b). […] The time-dependent labeling effect provides a way to determine the desirable DOL according to different applications by simply controlling the labeling time. Meanwhile, a lower temperature labeling process with a longer reaction time could be a better choice to obtain fluorescent proteins while maintaining their native structures.
BSA samples were subjected to labeling with different dye concentrations. The SDS-PAGE fluorescence intensity of labeled BSA increased with increasing dye concentration. […] Further increasing the dye concentration could give higher fluorescence intensity due to nonspecific labeling. Clearly, the DOL of protein samples can be controlled by varying the dye concentration.
as §2
BSA was labeled by each dye with a series of varying dye/thiol ratios. After the electrophoresis, the gel fluorescent image was taken under UV excitation and the fluorescence intensity was obtained from three independent experiments. Fluorescence intensities normalized with the sample with the lowest dye concentration are plotted versus the dye/thiol ratio (FIG. 16). […] This self-quenching effect is inevitable for self-quenching dyes such as 5-BMF and limits these dyes' application on quantification of proteins. In contrast, detection and quantification of proteins with high contents of Cys can be easily achieved by using AIE active molecules such as TPEMBR.

Chain of BSA (35 Cys) (P02769 25-607): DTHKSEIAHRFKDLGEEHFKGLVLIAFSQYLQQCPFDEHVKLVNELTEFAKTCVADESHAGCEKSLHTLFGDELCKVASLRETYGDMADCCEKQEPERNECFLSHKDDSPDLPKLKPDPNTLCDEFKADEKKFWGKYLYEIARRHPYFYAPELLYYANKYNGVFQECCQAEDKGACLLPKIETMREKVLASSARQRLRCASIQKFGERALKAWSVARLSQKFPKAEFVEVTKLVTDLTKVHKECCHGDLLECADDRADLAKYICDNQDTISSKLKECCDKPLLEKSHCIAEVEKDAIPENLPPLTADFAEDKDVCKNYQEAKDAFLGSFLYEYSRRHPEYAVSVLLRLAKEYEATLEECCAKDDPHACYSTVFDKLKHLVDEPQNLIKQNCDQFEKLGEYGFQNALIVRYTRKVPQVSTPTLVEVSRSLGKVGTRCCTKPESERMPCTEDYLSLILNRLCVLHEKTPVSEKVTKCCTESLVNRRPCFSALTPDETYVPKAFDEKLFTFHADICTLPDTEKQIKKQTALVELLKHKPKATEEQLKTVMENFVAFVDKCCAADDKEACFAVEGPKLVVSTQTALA
Chain of bovine serum albumin (BSA) (P02769 25-607): as above
Chain of horse myoglobin (0 Cys) (P68082 whole entry): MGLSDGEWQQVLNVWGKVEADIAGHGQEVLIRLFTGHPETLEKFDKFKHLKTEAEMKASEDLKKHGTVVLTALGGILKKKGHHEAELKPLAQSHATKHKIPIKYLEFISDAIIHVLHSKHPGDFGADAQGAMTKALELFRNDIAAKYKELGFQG

Row | emission of labeled protein on gel [2] | quantum efficiency after reacting with DTT relative to before [3] | quantum efficiency [4] | PL intensity relative to the mixture with 70% water [5] | emission of labeled protein on gel ([6]; 0.5 mM dye) | dye concentration at which maximum intensity was reached ([6]; SDS-PAGE fluorescence intensity of labeled BSA) | labeling time to maximum fluorescence intensity ([6]; labeling at 50° C., 10 min to 4 h) | self-quenching effect versus dye/thiol ratio ([6]; series of dye/thiol ratios) | Compound | fluorescence intensity of labeled BSA versus dye concentration [1]
1 |  |  |  |  |  |  |  |  | O=S(=O)([O-])CCCOc1ccc(C(=C(c2ccccc2)c2ccc(OCCCS(=O)(=O)[O-])cc2)c2ccccc2)cc1.[Na+].[Na+] (mixture of isomers) [TPE-SO3] | increased continuously
2 | no fluorescence at all | approximately 3 times | 31.7% | approximately 50 fold | much higher emission than yeast enolase | ≥ 0.5 mM | 3 h | kept on increasing | BrCc1ccc(C(=C(c2ccccc2)c2ccccc2)c2ccccc2)cc1 [TPEMBR] | 
